Laboratory results as given in the supplement of paper PMC10307832.

Columns and labels:
Experiment in all cases: relative viability (nuclei count vs DMSO), 5 days (fraction); higher = more cells survive
XMD13-2 = compound: C1CC1C(=O)NC2=NNC3=C2C=CC(=C3)C4=CC(=CC=C4)C(=O)NC5CC5 [XMD13-2]
In short: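 Lung cancer cell lines were seeded into 1536-well plates, kept overnight at 37 °C and pinned with five library-drug doses (not always all listed) spaced by √10. After 5 days, nuclei were Hoechst-stained, imaged at 4× and counted with MetaXpress. Viability is treated-well nuclei over vehicle-well nuclei, taken as a median across plates. Plates needed control CV below 25% and at least one doubling.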

XMD13-2 + Olaparib = compound: C1CC1C(=O)NC2=NNC3=C2C=CC(=C3)C4=CC(=CC=C4)C(=O)NC5CC5 [XMD13-2] + O=C(c1cc(Cc2n[nH]c(=O)c3ccccc23)ccc1F)N1CCN(C(=O)C2CC2)CC1 [Olaparib] (partner 8 µM)
In short: (§1)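 Lung cancer cell lines were pin-tool dosed in 1536-well plates on the day after seeding, with either a lone drug or a fixed anchor-drug dose plus five library-drug doses (not always all listed) in √10 steps. Nuclei were counted on 4× images after 5 days. Relative viability is the ratio of treated-well to vehicle-well nuclei counts, with each value a median of duplicate plates.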

Dasatinib + Linsitinib = compound: Cc1nc(Nc2ncc(C(=O)Nc3c(C)cccc3Cl)s2)cc(N2CCN(CCO)CC2)n1 [Dasatinib] + C[C@]1(O)C[C@@H](c2nc(-c3ccc4ccc(-c5ccccc5)nc4c3)c3c(N)nccn32)C1 [Linsitinib] (partner 1 µM)
In short: as §1

Dasatinib + Lapatinib = compound: Cc1nc(Nc2ncc(C(=O)Nc3c(C)cccc3Cl)s2)cc(N2CCN(CCO)CC2)n1 [Dasatinib] + CS(=O)(=O)CCNCc1ccc(-c2ccc3ncnc(Nc4ccc(OCc5cccc(F)c5)c(Cl)c4)c3c2)o1 [Lapatinib] (partner 2 µM)
In short: as §1

Cell Line | relative viability (XMD13-2; 0.05 µM) | relative viability (XMD13-2; 0.1581 µM) | relative viability (XMD13-2; 0.5 µM) | relative viability (XMD13-2; 1.581 µM) | relative viability (XMD13-2; 5 µM) | relative viability (XMD13-2 + Olaparib; first compound 0.05 µM) | relative viability (XMD13-2 + Olaparib; first compound 0.1581 µM) | relative viability (XMD13-2 + Olaparib; first compound 0.5 µM) | relative viability (XMD13-2 + Olaparib; first compound 1.581 µM) | relative viability (XMD13-2 + Olaparib; first compound 5 µM) | relative viability (Dasatinib + Linsitinib; first compound 0.005 µM) | relative viability (Dasatinib + Linsitinib; first compound 0.01581 µM) | relative viability (Dasatinib + Linsitinib; first compound 0.05 µM) | relative viability (Dasatinib + Linsitinib; first compound 0.1581 µM) | relative viability (Dasatinib + Linsitinib; first compound 0.5 µM) | relative viability (Dasatinib + Lapatinib; first compound 0.005 µM) | relative viability (Dasatinib + Lapatinib; first compound 0.01581 µM) | relative viability (Dasatinib + Lapatinib; first compound 0.05 µM) | relative viability (Dasatinib + Lapatinib; first compound 0.1581 µM) | relative viability (Dasatinib + Lapatinib; first compound 0.5 µM)
NCI-H2085 | 1.06 | 0.981 | 1.04 | 0.871 | 1.06 | 0.771 | 0.695 | 0.805 | 0.728 | 0.768 | 0.773 | 0.789 | 0.644 | 0.232 | 0.172 | 0.666 | 0.624 | 0.417 | 0.199 | 0.182
NCI-H2087 | 1.3 | 1.19 | 1.17 | 1.01 | 0.962 | 0.643 | 0.607 | 0.691 | 0.562 | 0.567 | 0.929 | 0.772 | 1.04 | 0.862 | 0.469 | 1.03 | 0.839 | 0.95 | 1.09 | 0.605
NCI-H2126 | 1.02 | 0.949 | 1.02 | 1.03 | 1.03 | 0.922 | 0.863 | 0.894 | 0.821 | 0.929 | 0.636 | 0.582 | 0.589 | 0.422 | 0.264 | 0.748 | 0.584 | 0.669 | 0.525 | 0.328
NCI-H2228 | 1.16 | 0.99 | 1.27 | 1.06 | 1.17 | 0.834 | 0.517 | 0.623 | 0.554 | 0.747 | 0.629 | 0.593 | 0.649 | 0.326 | 0.215 | 0.829 | 1.06 | 0.705 | 0.731 | 0.551
NCI-H2347 | 1.05 | 1.02 | 1.06 | 1.08 | 0.935 | 0.608 | 0.538 | 0.598 | 0.532 | 0.601 | 1.01 | 0.935 | 0.943 | 0.402 | 0.159 | 0.872 | 0.951 | 1.04 | 0.691 | 0.386
NCI-H2405 | 1.09 | 0.986 | 1.05 | 0.883 | 1.08 | 0.931 | 0.874 | 0.931 | – | 0.843 | 0.699 | 0.392 | 0.336 | 0.253 | 0.167 | 0.684 | 0.81 | 0.465 | 0.222 | 0.17
NCI-H3122 | 1.01 | 1 | 1.03 | 1.01 | 1.01 | 0.726 | 0.649 | 0.697 | 0.702 | 0.629 | 1.03 | 1.05 | 1.03 | 0.762 | 0.815 | 0.999 | 1.02 | 1.02 | 1.01 | 0.84
PC-3 [JPC-3] | 1.06 | 1.05 | 1.06 | 1.02 | 1.17 | 1.16 | 1.12 | 1.12 | – | 1.05 | 0.976 | 0.97 | 1.07 | 1.06 | 0.633 | 0.422 | 0.393 | 0.444 | 0.331 | 0.335
PC-14 | 1.08 | 1.04 | 1.07 | 0.98 | 1.13 | 0.299 | 0.259 | 0.266 | 0.271 | 0.467 | 1 | 0.968 | 0.93 | 0.546 | 0.281 | 0.29 | 0.282 | 0.242 | 0.208 | 0.0848
RERF-LC-KJ | 1.08 | 0.942 | 1.05 | 0.938 | 0.912 | 0.971 | 0.917 | 0.928 | 0.983 | 0.985 | 0.896 | 0.845 | 0.862 | 0.67 | 0.634 | 0.819 | 0.758 | 0.84 | 0.813 | 0.809
SK-LU-1 | 1.07 | 1.03 | 1.19 | 1.05 | 0.924 | 0.499 | 0.444 | 0.514 | 0.444 | 0.422 | 0.636 | 0.445 | 0.435 | 0.261 | 0.242 | 0.467 | 0.53 | 0.424 | 0.305 | 0.298
SK-MES-1 | 1.13 | 1.01 | 1.03 | 0.968 | 1.07 | 0.906 | 0.646 | 0.804 | 0.73 | 0.761 | 1.11 | 1.08 | 0.937 | 0.412 | 0.219 | 0.467 | 0.482 | 0.399 | 0.315 | 0.258
SW 1573 | 1.08 | 0.998 | 1.09 | 0.941 | 0.874 | 0.66 | 0.479 | 0.497 | 0.395 | 0.287 | 0.747 | 0.648 | 0.6 | 0.425 | 0.435 | 1.15 | 0.967 | 1.01 | 0.738 | 0.826
